According to patent US6284918A, “Selective inhibitors of prostaglandin endoperoxide synthase-2” (priority 1999, dated 2001):

Columns and labels:
human PGHS-2 = biological target: T1, human PGHS-2 (Homo sapiens, UniProt P35354); test: Time- and concentration-dependent inhibition of human PGHS-2, TLC assay (3 h preincubation); assay type: biochemical; settings: for IC50: PGHS-2 88 nM; for inhibition of PGHS-2 (in words): table footnotes; for IC50 (PGHS-1)/IC50 (PGHS-2): selectivity ratio, 180 min
T1 construct: made in house; host or cells: insect cells (baculovirus vectors)
T1 sequence (P35354 18-604): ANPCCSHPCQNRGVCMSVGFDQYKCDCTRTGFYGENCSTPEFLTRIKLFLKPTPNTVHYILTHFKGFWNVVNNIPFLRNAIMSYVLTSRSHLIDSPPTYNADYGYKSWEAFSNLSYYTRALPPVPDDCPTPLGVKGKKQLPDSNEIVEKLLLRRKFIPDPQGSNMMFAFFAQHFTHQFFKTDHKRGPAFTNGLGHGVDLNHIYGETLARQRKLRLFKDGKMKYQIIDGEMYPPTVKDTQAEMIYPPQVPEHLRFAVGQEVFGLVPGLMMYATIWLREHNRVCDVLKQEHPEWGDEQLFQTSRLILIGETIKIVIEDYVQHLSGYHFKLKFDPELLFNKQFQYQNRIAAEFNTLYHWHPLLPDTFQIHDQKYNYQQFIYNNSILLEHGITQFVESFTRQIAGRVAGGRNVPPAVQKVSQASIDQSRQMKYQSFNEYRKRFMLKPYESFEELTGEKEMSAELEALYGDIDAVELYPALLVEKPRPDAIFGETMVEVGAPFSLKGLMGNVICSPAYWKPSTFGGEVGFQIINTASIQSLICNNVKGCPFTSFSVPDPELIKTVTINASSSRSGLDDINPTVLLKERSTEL
Description: (§1) Cyclooxygenase activity of ovine PGHS-1 (22 nM) or human PGHS-2 (88 nM) was assayed by TLC. Reaction mixtures of 200 μL consisted of hematin-reconstituted protein in 100 mM Tris-HCl, pH 8.0, 500 μM phenol, and [1-^14 C]arachidonic acid (50 μM, 57 mCi/mmol). For the time-dependent inhibition assay, hematin-reconstituted PGHS-1 (22 nM) or PGHS-2 (88 nM) was preincubated at room temperature for 2 hours and then at 0° C. for 1 hour with varying concentrations of inhibitor in DMSO followed by the addition of [1-^14 C]arachidonic acid (50 μM) for 30 seconds at 37° C. Reactions were terminated by solvent extraction in diethyl ether/methanol/1 M citrate, pH 4.0 (30:4:1). The organic phase was spotted on a TLC plate (Amersham Corp.). The plate was developed with ethyl acetate/methylene chloride/glacial acetic acid (75:25:1) at 4° C. Radiolabeled products were quantitated with a radioactivity scanner (Bioscan, Inc., Washington, D.C.).
(§2) conducted at room temperature for 3 hours. The cyclooxygenase reaction was
(§3) initiated by the addition of 14C-arachidonic acid (50 μM) to the
(§4) incubation mixtures at 37 C for 30 seconds.
(§5) conducted at room temperature for 3 hours. The cyclooygenase reaction was
(§6) initiated by the addition of ^14 C-arachidonic acid ([…]) to the
(§7) incubation mixtures at 37° C. for 30 sec.

ovine PGHS-1 = biological target: T2, ovine PGHS-1 (Ovis aries, UniProt P05979); test: Time- and concentration-dependent inhibition of ovine PGHS-1, TLC assay (3 h preincubation); assay type: biochemical; settings: for inhibition of PGHS-1 (in words): table footnotes
T2 construct: PGHS-1 was purified from sheep seminal vesicles as described earlier; tissue Oxford Biomedical Research, Inc. (supplier of the sheep seminal vesicles); host or cells: sheep seminal vesicles
T2 sequence (P05979 25-600): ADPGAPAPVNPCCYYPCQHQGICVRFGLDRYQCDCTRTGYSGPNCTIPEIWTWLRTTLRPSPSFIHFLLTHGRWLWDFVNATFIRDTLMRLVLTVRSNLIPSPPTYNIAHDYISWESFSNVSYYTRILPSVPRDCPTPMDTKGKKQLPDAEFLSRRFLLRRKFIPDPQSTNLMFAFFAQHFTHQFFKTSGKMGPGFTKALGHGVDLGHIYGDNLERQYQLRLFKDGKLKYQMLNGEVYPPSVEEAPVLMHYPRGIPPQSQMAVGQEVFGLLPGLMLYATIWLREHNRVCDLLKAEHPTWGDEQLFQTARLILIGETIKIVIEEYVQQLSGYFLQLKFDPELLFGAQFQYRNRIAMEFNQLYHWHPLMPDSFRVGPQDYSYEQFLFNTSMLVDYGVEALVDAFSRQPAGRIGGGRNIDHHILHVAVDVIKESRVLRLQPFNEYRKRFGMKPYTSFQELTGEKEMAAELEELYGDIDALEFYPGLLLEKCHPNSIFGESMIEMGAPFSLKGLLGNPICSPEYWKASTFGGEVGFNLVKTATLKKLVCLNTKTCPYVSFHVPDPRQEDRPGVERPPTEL
Description: as §1, §2, §3, §4, §5, §6, §7

[1] = Table 1, 22 nM enzyme, 3 h at room temperature, 50 μM 14C-arachidonic acid
[2] = Table 1, 3 h at room temperature, 50 μM 14C-arachidonic acid
[3] = Table 2, PGHS-1 22 nM, 3 h at room temperature
[4] = Table 2, 3 h at room temperature

`CSc1ccccc1OC(=O)C(F)(F)F` [Compound 6] showed an inhibition at 100 µM (human PGHS-2; FIG. 8, 0.1 mM) of roughly 35%.
With `CSc1ccccc1OC(=O)CCl` [Compound 7, 2-(α-chloroacetoxy)thioanisole] the IC50 (ovine PGHS-1; [1]) was 0.39 mM and the IC50 (human PGHS-2; [2]) was 360 µM.
Work on `CSc1ccccc1OC(=O)CBr` [Compound 8, 2-(α-bromoacetoxy)thioanisole] yielded an IC50 (ovine PGHS-1; [1]) of 0.32 mM and an IC50 (human PGHS-2; [2]) of 510 µM.
In the case of `CCCCCCCSc1ccccc1O` [Compound 38, 2-Hydroxyphenylheptyl sulfide], the “inhibition of PGHS-1 (in words)” value (ovine PGHS-1) is reported as “did not inhibit”, the “inhibition of cyclooxygenase activity of human holoPGHS-2 (in words)” value (shortened to “inhibition … of human holoPGHS-2 (in words)”) (human PGHS-2; FIG. 9, 3 h at room temperature) is reported as “very little effect” and the “inhibition of PGHS-2 (in words)” value (human PGHS-2) is reported as “did not inhibit”.
In the case of `CCSc1ccccc1OC(C)=O` [Compound 49, 2-Acetoxyphenylethyl sulfide], the IC50 (ovine PGHS-1; [3]) is reported as 0.375 mM, the IC50 (human PGHS-2; [4]) is reported as 200 µM and the “IC50 (PGHS-1)/IC50 (PGHS-2)” value (human PGHS-2; Table 2) is reported as 1.8.
`CCCSc1ccccc1OC(C)=O` [Compound 50, 2-Acetoxyphenylpropyl sulfide] was tested, and the IC50 (ovine PGHS-1; [3]) was 0.066 mM, the IC50 (human PGHS-2; [4]) was 66 µM and the “IC50 (PGHS-1)/IC50 (PGHS-2)” value (human PGHS-2; Table 2) was 1.0.
With `CC(=O)Oc1ccccc1SCC(C)C` [Compound 51, 2-Acetoxyphenyl-2-methylpropyl sulfide] the IC50 (ovine PGHS-1; [3]) was 0.034 mM, the IC50 (human PGHS-2; [4]) was 40 µM and the “IC50 (PGHS-1)/IC50 (PGHS-2)” value (human PGHS-2; Table 2) was 1.2.
In the case of `CCCCCCSc1ccccc1OC(C)=O` [Compound 53, 2-Acetoxyphenylhexyl sulfide], the IC50 (ovine PGHS-1; [3]) is reported as 0.008 mM, the IC50 (human PGHS-2; [4]) is reported as 3.5 µM and the “IC50 (PGHS-1)/IC50 (PGHS-2)” value (human PGHS-2; Table 2) is reported as 2.3.
With `CCCCCCCCSc1ccccc1OC(C)=O` [Compound 55, 2-Acetoxyphenyloctyl sulfide] the IC50 (ovine PGHS-1; [3]) was greater than 0.033 mM and the IC50 (human PGHS-2; [4]) was greater than 33 µM.
In the case of `CCCCCCCCCSc1ccccc1OC(C)=O` [Compound 56, 2-Acetoxyphenylnonyl sulfide], the IC50 (ovine PGHS-1; [3]) is reported as greater than 0.033 mM and the IC50 (human PGHS-2; [4]) is reported as greater than 33 µM.
Compound `CC(=O)Oc1ccccc1SC1CCCCC1` [Compound 57, 2-Acetoxyphenylcyclohexyl sulfide] has an IC50 (ovine PGHS-1; [3]) greater than 0.033 mM and an IC50 (human PGHS-2; [4]) greater than 33 µM.
With `CC(=O)Oc1ccccc1SC1CCCCCC1` [Compound 58, 2-Acetoxyphenylcycloheptyl sulfide] the IC50 (ovine PGHS-1; [3]) was greater than 0.033 mM and the IC50 (human PGHS-2; [4]) was greater than 33 µM.
`CC(=O)Oc1ccccc1SCCc1ccccc1` [Compound 60, 2-Acetoxyphenyl-2-phenylethyl sulfide] gave an IC50 (human PGHS-2; [2]) of 100 µM.
Compound `CC(=O)Oc1ccccc1SCCCCCCCC(=O)O` [Compound 63, 2-Acetoxyphenyl-8-carboxyheptyl sulfide] has an IC50 (ovine PGHS-1; Table 1, cell printed in mM) greater than 1 mM.
For `CCCCOCCSc1ccccc1OC(C)=O` [Compound 67, 2-Acetoxyphenyl-2-butoxyethyl sulfide], the IC50 (ovine PGHS-1; [3]) was 0.022 mM, the “inhibition … of human holoPGHS-2 (in words)” value (human PGHS-2; FIG. 11, 8 μM (compound 67)) was “greatly inhibited” and the IC50 (human PGHS-2; [4]) was 7 µM. For the same compound, the “IC50 (PGHS-1)/IC50 (PGHS-2)” value (human PGHS-2; Table 2) was 3.
`CCOCCCSc1ccccc1OC(C)=O` [Compound 71, 2-Acetoxyphenyl-3-ethoxypropyl sulfide] was tested, and the IC50 (ovine PGHS-1; [3]) was greater than 0.033 mM, the “inhibition … of human holoPGHS-2 (in words)” value (human PGHS-2; FIG. 11, 8 μM (compound 67)) was “very little effect” and the IC50 (human PGHS-2; [4]) was greater than 33 µM.
`CCCC/C=C/CSc1ccccc1OC(C)=O` [Compound 75, 2-Acetoxyphenyl-trans-hept-2-enyl sulfide] gave an IC50 (ovine PGHS-1; [3]) greater than 0.0165 mM and an inhibition at 16.5 µM (ovine PGHS-1; at 16.5 μM) of roughly 25%.
`CCCCC#CCSc1ccccc1O` [Compound 82, 2-Hydroxyphenyl-hept-2-ynyl sulfide] was tested, and the “inhibition of PGHS-1 (in words)” value (ovine PGHS-1) was “did not inhibit”, the “inhibition … of human holoPGHS-2 (in words)” value (human PGHS-2; FIGS. 12 and 13, 1-16 μM) was “very little effect” and the “inhibition of PGHS-2 (in words)” value (human PGHS-2) was “did not inhibit”.
In the case of `CCCC#CCSc1ccccc1OC(C)=O` [Compound 88, 2-Acetoxyphenylhex-2-ynyl sulfide], the IC50 (ovine PGHS-1; [3]) is reported as 0.014 mM, the “inhibition … of human holoPGHS-2 (in words)” value (human PGHS-2; FIGS. 12 and 13, 1-16 μM) is reported as “greatly inhibited” and the IC50 (human PGHS-2; [4]) is reported as 3 µM. For the same compound, the “IC50 (PGHS-1)/IC50 (PGHS-2)” value (human PGHS-2; Table 2) was 4.6.
In the case of `CCC#CCSc1ccccc1OC(C)=O` [Compound 89, 2-Acetoxyphenylpent-2-ynyl sulfide], the IC50 (ovine PGHS-1; [3]) is reported as 0.02 mM, the IC50 (human PGHS-2; [4]) is reported as 5 µM and the “IC50 (PGHS-1)/IC50 (PGHS-2)” value (human PGHS-2; Table 2) is reported as 4.
In the case of `CC#CCSc1ccccc1OC(C)=O` [Compound 90, 2-Acetoxyphenyl-but-2-ynyl sulfide], the IC50 (ovine PGHS-1; [3]) is reported as greater than 0.035 mM and the “IC50 (PGHS-1)/IC50 (PGHS-2)” value (human PGHS-2; Table 2) is reported as greater than 2.
`C#CCSc1ccccc1OC(C)=O` [Compound 91, 2-Acetoxyphenyl-prop-2-ynyl sulfide] was tested, and the IC50 (ovine PGHS-1; [3]) was 0.04 mM, the IC50 (human PGHS-2; [4]) was 25 µM and the “IC50 (PGHS-1)/IC50 (PGHS-2)” value (human PGHS-2; Table 2) was 1.6.
